{"source": "patent US7544704B2", "about": "“Aryl-4-ethynyl-isoxazole derivatives” (Hoffmann-La Roche Inc., priority 2006, dated 2009)", "biological_target": "T1, human GABA A receptor α5β3γ2 (Homo sapiens, UniProt P18507+P31644)", "T1 construct": "expressed in transfected cells; host or cells: HEK293 (transiently transfected), membranes", "experiment": "[3H]flumazenil competition binding to HEK293 cell membranes expressing human GABA A α5β3γ2", "conditions": "displacement of [3H]flumazenil (0.5 nM), human α5β3γ2 transiently transfected in HEK293, means of two determinations; read-out: Ki[nM] hα5", "description": "Membrane Preparation and Binding Assay\nThe affinity of compounds at GABA A receptor subtypes was measured by competition for [3H]flumazenil (85 Ci/mmol; Roche) binding to HEK293 cells expressing rat (stably transfected) or human (transiently transfected) receptors of composition α1β3γ2, α2β3γ2, α3β3γ2 and α5β3γ2.\nCell pellets were suspended in Krebs-tris buffer (4.8 mM KCl, 1.2 mM CaCl2, 1.2 mM MgCl2, 120 mM NaCl, 15 mM Tris; pH 7.5; binding assay buffer), homogenized by polytron for ca. 20 sec on ice and centrifuged for 60 min at 4° C. (50000 g; Sorvall, rotor: SM24=20000 rpm). The cell pellets were resuspended in Krebs-tris buffer and homogenized by polytron for ca. 15 sec on ice. Protein was measured (Bradford method, Bio-Rad) and aliquots of 1 mL were prepared and stored at −80° C.\nRadioligand binding assays were carried out in a volume of […] (96-well plates) which contained […] of cell membranes, [3H]flumazenil at a concentration of 1 nM for α1, α2, α3 subunits and 0.5 nM for a5 subunits and the test compound in the range of […]. Nonspecific binding was defined by 10^−5 M diazepam and typically represented less than 5% of the total binding. Assays were incubated to equilibrium for 1 hour at 4° C. and harvested onto GF/C uni-filters (Packard) by filtration using a Packard harvester and washing with ice-cold wash buffer (50 mM Tris; pH 7.5). After drying, filter-retained radioactivity was detected by liquid scintillation counting. Ki values were calculated using Excel-Fit (Microsoft) and are the means of two determinations."}
{"smiles": "Cc1onc(-c2ccccc2)c1C#Cc1ccccn1", "note": "[Example 1, 2-(5-Methyl-3-phenyl-isoxazol-4-ylethynyl)-pyridine]", "values": [{"measurement": "Ki", "value": 47.9, "unit": "nM"}]}
{"smiles": "Cc1onc(-c2ccccc2)c1C#Cc1cccc(C(=O)NC2CCOCC2)c1", "note": "[Example 8, 3-(5-Methyl-3-phenyl-isoxazol-4-ylethynyl)-N-(tetrahydro-pyran-4-yl)-benzamide]", "values": [{"measurement": "Ki", "value": 91.6, "unit": "nM"}]}
{"smiles": "COC(=O)c1ccccc1C#Cc1c(-c2ccccc2)noc1C", "note": "[Example 12, 2-(5-Methyl-3-phenyl-isoxazol-4-ylethynyl)-benzoic acid methyl ester]", "values": [{"measurement": "Ki", "value": 87.3, "unit": "nM"}]}
{"smiles": "Cc1onc(-c2ccccc2)c1C#Cc1ccccc1N", "note": "[Example 14, 2-(5-Methyl-3-phenyl-isoxazol-4-ylethynyl)-phenylamine]", "values": [{"measurement": "Ki", "value": 38.4, "unit": "nM"}]}
{"smiles": "COC(=O)c1ccnc(C#Cc2c(-c3ccccc3)noc2C)c1", "note": "[Example 17, 2-(5-Methyl-3-phenyl-isoxazol-4-ylethynyl)-isonicotinic acid methyl ester]", "values": [{"measurement": "Ki", "value": 74.9, "unit": "nM"}]}
{"smiles": "Cc1ccc(C#Cc2c(-c3ccccc3)noc2C)nn1", "note": "[Example 19, 3-Methyl-6-(5-methyl-3-phenyl-isoxazol-4-ylethynyl)-pyridazine]", "values": [{"measurement": "Ki", "value": 26.6, "unit": "nM"}]}
{"smiles": "Cc1onc(-c2ccccc2)c1C#Cc1nccn1C", "note": "[Example 21, 5-Methyl-4-(1-methyl-1H-imidazol-2-ylethynyl)-3-phenyl-isoxazole]", "values": [{"measurement": "Ki", "value": 26, "unit": "nM"}]}
{"smiles": "Cc1ncc(C#Cc2c(-c3ccccc3)noc2C)[nH]1", "note": "[Example 22, 5-Methyl-4-(2-methyl-3H-imidazol-4-ylethynyl)-3-phenyl-isoxazole]", "values": [{"measurement": "Ki", "value": 77.2, "unit": "nM"}]}
{"smiles": "Cc1c[nH]nc1C#Cc1c(-c2ccccc2)noc1C", "note": "[Example 23, 5-Methyl-4-(4-methyl-1H-pyrazol-3-ylethynyl)-3-phenyl-isoxazole]", "values": [{"measurement": "Ki", "value": 53, "unit": "nM"}]}
{"smiles": "CCOC(=O)c1nc(C)sc1C#Cc1c(-c2ccccc2)noc1C", "note": "[Example 24, 2-Methyl-5-(5-methyl-3-phenyl-isoxazol-4-ylethynyl)-thiazole-4-carboxylic acid ethyl ester]", "values": [{"measurement": "Ki", "value": 85.2, "unit": "nM"}]}
{"smiles": "Cc1cnc(C)c(C#Cc2c(-c3ccccc3)noc2C)n1", "note": "[Example 26, 2,5-Dimethyl-3-(5-methyl-3-phenyl-isoxazol-4-ylethynyl)-pyrazine]", "values": [{"measurement": "Ki", "value": 10.4, "unit": "nM"}]}
{"smiles": "Cc1onc(-c2ccccc2)c1C#Cc1cc(C(=O)NCC2CC2)ccn1", "note": "[Example 27, N-Cyclopropylmethyl-2-(5-methyl-3-phenyl-isoxazol-4-ylethynyl)-isonicotinamide]", "values": [{"measurement": "Ki", "value": 39.8, "unit": "nM"}]}
{"smiles": "Cc1onc(-c2ccccc2)c1C#Cc1cc(C(=O)NC2CCOCC2)ccn1", "note": "[Example 28, 2-(5-Methyl-3-phenyl-isoxazol-4-ylethynyl)-N-(tetrahydro-pyran-4-yl)-isonicotinamide]", "values": [{"measurement": "Ki", "value": 20.7, "unit": "nM"}]}
{"smiles": "Cc1csc(NC(=O)c2ccnc(C#Cc3c(-c4ccccc4)noc3C)c2)n1", "note": "[Example 29, 2-(5-Methyl-3-phenyl-isoxazol-4-ylethynyl)-N-(4-methyl-thiazol-2-yl)-isonicotinamide]", "values": [{"measurement": "Ki", "value": 90.1, "unit": "nM"}]}
{"smiles": "Cc1onc(-c2ccccc2)c1C#Cc1cccc(Cl)n1", "note": "[Example 30, 2-Chloro-6-(5-methyl-3-phenyl-isoxazol-4-ylethynyl)-pyridine]", "values": [{"measurement": "Ki", "value": 71.9, "unit": "nM"}]}
{"smiles": "Cc1ccc(C#Cc2c(-c3ccccc3)noc2C)nc1", "note": "[Example 31, 5-Methyl-2-(5-methyl-3-phenyl-isoxazol-4-ylethynyl)-pyridine]", "values": [{"measurement": "Ki", "value": 45.5, "unit": "nM"}]}
{"smiles": "Cc1onc(-c2ccccc2)c1C#Cc1ncc(-c2ccccc2)n1C", "note": "[Example 32, 5-Methyl-4-(1-methyl-5-phenyl-1H-imidazol-2-ylethynyl)-3-phenyl-isoxazole]", "values": [{"measurement": "Ki", "value": 28.4, "unit": "nM"}]}
{"smiles": "Cc1onc(-c2ccccc2)c1C#Cc1ncc(C)n1-c1ccccc1", "note": "[Example 33, 5-Methyl-4-(5-methyl-1-phenyl-1H-imidazol-2-ylethynyl)-3-phenyl-isoxazole]", "values": [{"measurement": "Ki", "value": 23.7, "unit": "nM"}]}
{"smiles": "Cc1onc(-c2ccccc2)c1C#Cc1cnccn1", "note": "[Example 34, 2-(5-Methyl-3-phenyl-isoxazol-4-ylethynyl)-pyrazine]", "values": [{"measurement": "Ki", "value": 59.2, "unit": "nM"}]}
{"smiles": "Cc1cccc(C#Cc2c(-c3ccccc3)noc2C)n1", "note": "[Example 35, 2-Methyl-6-(5-methyl-3-phenyl-isoxazol-4-ylethynyl)-pyridine]", "values": [{"measurement": "Ki", "value": 39.3, "unit": "nM"}]}
{"smiles": "Cc1ccnc(C#Cc2c(-c3ccccc3)noc2C)c1", "note": "[Example 37, 4-Methyl-2-(5-methyl-3-phenyl-isoxazol-4-ylethynyl)-pyridine]", "values": [{"measurement": "Ki", "value": 48, "unit": "nM"}]}
{"smiles": "Cc1onc(-c2ccccc2)c1C#Cc1cc(C(F)(F)F)ccn1", "note": "[Example 38, 2-(5-Methyl-3-phenyl-isoxazol-4-ylethynyl)-4-trifluoromethyl-pyridine]", "values": [{"measurement": "Ki", "value": 37, "unit": "nM"}]}
{"smiles": "Cc1cccnc1C#Cc1c(-c2ccccc2)noc1C", "note": "[Example 39, 3-Methyl-2-(5-methyl-3-phenyl-isoxazol-4-ylethynyl)-pyridine]", "values": [{"measurement": "Ki", "value": 28.9, "unit": "nM"}]}
{"smiles": "Cc1onc(-c2ccccc2)c1C#Cc1ccc(N)cn1", "note": "[Example 41, 6-(5-Methyl-3-phenyl-isoxazol-4-ylethynyl)-pyridin-3-ylamine]", "values": [{"measurement": "Ki", "value": 55.7, "unit": "nM"}]}
{"smiles": "Cc1onc(-c2ccccc2)c1C#Cc1ccc(Cl)cn1", "note": "[Example 42, 5-Chloro-2-(5-methyl-3-phenyl-isoxazol-4-ylethynyl)-pyridine]", "values": [{"measurement": "Ki", "value": 81.7, "unit": "nM"}]}
{"smiles": "CCc1ccnc(C#Cc2c(-c3ccccc3)noc2C)c1", "note": "[Example 44, 4-Ethyl-2-(5-methyl-3-phenyl-isoxazol-4-ylethynyl)-pyridine]", "values": [{"measurement": "Ki", "value": 38.9, "unit": "nM"}]}
{"smiles": "Cc1onc(-c2ccccc2)c1C#Cc1cnc2ccccc2n1", "note": "[Example 45, 2-(5-Methyl-3-phenyl-isoxazol-4-ylethynyl)-quinoxaline]", "values": [{"measurement": "Ki", "value": 84.4, "unit": "nM"}]}
{"smiles": "Cc1onc(-c2ccccc2)c1C#Cc1cncc(N)n1", "note": "[Example 46, 6-(5-Methyl-3-phenyl-isoxazol-4-ylethynyl)-pyrazin-2-ylamine]", "values": [{"measurement": "Ki", "value": 18.3, "unit": "nM"}]}
{"smiles": "Cc1onc(-c2ccccc2)c1C#Cc1cnc(N)cn1", "note": "[Example 47, 5-(5-Methyl-3-phenyl-isoxazol-4-ylethynyl)-pyrazin-2-ylamine]", "values": [{"measurement": "Ki", "value": 37.2, "unit": "nM"}]}
{"smiles": "CCOC(=O)c1c(C)nc(C#Cc2c(-c3ccccc3)noc2C)n1C", "note": "[Example 50, 3,5-Dimethyl-2-(5-methyl-3-phenyl-isoxazol-4-ylethynyl)-3H-imidazole-4-carboxylic acid ethyl ester]", "values": [{"measurement": "Ki", "value": 7.3, "unit": "nM"}]}
{"smiles": "Cc1onc(-c2ccccc2)c1C#Cc1nc2n(c1C)CCCC2", "note": "[Example 52, 3-Methyl-2-(5-methyl-3-phenyl-isoxazol-4-ylethynyl)-5,6,7,8-tetrahydro-imidazo[1,2-a]pyridine]", "values": [{"measurement": "Ki", "value": 15.5, "unit": "nM"}]}
{"smiles": "Cc1onc(-c2ccccc2)c1C#Cc1cc(-c2ccc(F)cc2)n(C)n1", "note": "[Example 53, 4-[5-(4-Fluoro-phenyl)-1-methyl-1H-pyrazol-3-ylethynyl]-5-methyl-3-phenyl-isoxazole]", "values": [{"measurement": "Ki", "value": 52.6, "unit": "nM"}]}
{"smiles": "Cc1onc(-c2ccccc2)c1C#Cc1nc(C)n(-c2cc(F)cc(F)c2)c1C", "note": "[Example 56, 4-[1-(3,5-Difluoro-phenyl)-2,5-dimethyl-1H-imidazol-4-ylethynyl]-5-methyl-3-phenyl-isoxazole]", "values": [{"measurement": "Ki", "value": 23.5, "unit": "nM"}]}
{"smiles": "Cc1onc(-c2ccccc2)c1C#Cc1nc(C)n(-c2ccc(F)cc2)c1C", "note": "[Example 57, 4-[1-(4-Fluoro-phenyl)-2,5-dimethyl-1H-imidazol-4-ylethynyl]-5-methyl-3-phenyl-isoxazole]", "values": [{"measurement": "Ki", "value": 39.1, "unit": "nM"}]}
{"smiles": "Cc1onc(-c2ccc(Cl)cc2)c1C#Cc1ccccn1", "note": "[Example 59, 2-[3-(4-Chloro-phenyl)-5-methyl-isoxazol-4-ylethynyl]-pyridine]", "values": [{"measurement": "Ki", "value": 54.5, "unit": "nM"}]}
{"smiles": "COC(=O)c1csc(C#Cc2c(-c3ccccc3)noc2C)n1", "note": "[Example 61, 2-(5-Methyl-3-phenyl-isoxazol-4-ylethynyl)-thiazole-4-carboxylic acid methyl ester]", "values": [{"measurement": "Ki", "value": 31.9, "unit": "nM"}]}
